Active and inactive are the calls of the source. The calls are words filed in the database; no cut-off is given here.
Experiments:
[1] = Antiproliferative activity against human HCCLM3 cells assessed as inhibition of cell growth measured after 48 hrs by MTT assay; type: functional, cell-based; settings: HCCLM3, 48 h
[2] = Inhibition of pyruvate carboxylase in human HCCLM3 cell lysate measured upto 24 hrs by PC assay kit; type: subcellular
HepG2 [3] = assay: Antiproliferative activity against human HepG2 cells assessed as inhibition of cell growth measured after 48 hrs by MTT assay; type: functional, cell-based; settings: HepG2, 48 h
HepG2 [4] = assay: Cytotoxicity against human HepG2 cells assessed as cell viability at 8 nM incubated for 48 hrs by MTT assay; type: functional, cell-based
[5] = Inhibition of pyruvate carboxylase in human HCCLM3 cells measured upto 24 hrs by PC assay kit; type: cell-based
HepG2 [6] = assay: Competitive inhibition of recombinant pyruvate carboxylase in human HepG2 cell lysate in presence of Erianin at 20 uM for 120 mins followed by irradiation of 365 nm UV light for 15 min by Native -PAGE analysis; type: subcellular
HepG2 [7] = assay: Cytotoxicity against human HepG2 cells assessed as cell viability at 62.5 to 250 nM preincubated for 48 hrs by MTT assay; type: functional, cell-based; settings: dose 62.5-250 nM
HepG2 [8] = assay: Cytotoxicity against human HepG2 cells assessed as cell viability at 1 to 4 nM incubated for 2 hrs by MTT assay; type: functional, cell-based; settings: dose 1-4 nM
[9] = Non-competitive inhibition of pyruvate carboxylase (unknown origin); parameters: species or system Homo sapiens
[10] = Competitive inhibition of pyruvate carboxylase (unknown origin) assessed as inhibition constant at varying concentrations of ATP; parameters: species or system Homo sapiens
[11] = Inhibition of pyruvate carboxylase in human HepG2 cell lysate measured upto 24 hrs by PC assay kit; type: subcellular
[12] = Inhibition of pyruvate carboxylase in human HepG2 cells measured upto 24 hrs by PC assay kit; type: cell-based

Row | IC50 [2] | IC50 (HepG2 [3]) | Compound | IC50 [1] | other results
1 | > 50000 nM | > 100000 nM | COc1cc(O)cc2c1-c1c(O)cc(O)cc1C[C@@H]2O | > 100000 nM | –
2 | 264 nM | 2580 nM | COc1cc(O)cc2c1-c1c(O)cccc1[C@@H](O)C2 | > 100000 nM | IC50 [5]: 47 nM
3 | > 50000 nM | > 100000 nM | COc1cc(O)cc(CCc2ccc(OC)c(O)c2)c1 | > 100000 nM | –
4 | > 50000 nM | > 100000 nM | COc1cc(O)cc2c1-c1c(O)cccc1CC2 [HIRCINOL] | > 100000 nM | –
5 | > 50000 nM | 1090 nM | COc1cc(CCc2cc(O)c(OC)c(OC)c2)ccc1O | > 100000 nM | –
6 | 191 nM | 3020 nM | COc1cc(CCc2cc(OC)c(O)c(OC)c2)ccc1O [MOSCATILIN] | 2090 nM | IC50 [5]: 34 nM
7 | > 50000 nM | > 6420 nM | OC[C@H]1O[C@@H](Oc2cccc3c2-c2c(O)cc(O)cc2C[C@H]3O)[C@H](O)[C@@H](O)[C@@H]1O | > 100000 nM | –
8 | > 50000 nM | > 100000 nM | COc1ccc(/C=C/c2cc(O)cc(O[C@@H]3O[C@H](CO)[C@@H](O)[C@H](O)[C@H]3O)c2)cc1O [RHAPONTIN] | > 100000 nM | –
9 | 125 nM | 1880 nM | COc1cc(O)cc(CCc2ccc(O)c(OC)c2)c1 [GIGANTOL] | 57900 nM | IC50 [5]: > 50000 nM
10 | > 50000 nM | > 100000 nM | COc1cc(O[C@@H]2O[C@H](CO)[C@@H](O)[C@H](O)[C@H]2O)cc2c1-c1c(O)cccc1[C@H](O)C2 | > 100000 nM | –
11 | 204 nM | 1740 nM | COc1cc(O)c2c(c1)CCc1cccc(O)c1-2 | 8540 nM | IC50 [5]: 104 nM
12 | > 50000 nM | > 100000 nM | COc1cc(O)cc2c1-c1c(O)cc(O)cc1[C@@H](O)C2 | > 100000 nM | –
13 | 88.8 nM | – | O=C(O)CC(=O)C(=O)O [OXALOACETATE] | – | IC50 [11]: 88.8 nM; IC50 [5]: 100 nM; IC50 [12]: 100 nM
14 | > 50000 nM | > 100000 nM | COc1cc(O)cc2c1-c1c(O)cccc1C[C@@H]2O | > 100000 nM | –

More lines, now with the values behind:

Row | Compound | IC50 [2] | IC50 (HepG2 [3]) | IC50 [1] | other results
15 | COc1ccc(CC(CCNC(=O)COCCOCCOCCNC(=O)[C@H](CCCCNC(=O)CCCC[C@@H]2SC[C@@H]3NC(=O)N[C@@H]32)NC(=O)CCC2(C)N=N2)c2cc(OC)c(OC)c(OC)c2)cc1O (some centres not stated) | – | – | – | Activity (HepG2 [4]): inactive
16 | COc1ccc(CC(CCNC(=O)[C@H](CCCCNC(=O)c2ccc(N=[N+]=[N-])cc2)NC(=O)CCCC[C@@H]2SC[C@@H]3NC(=O)N[C@@H]32)c2cc(OC)c(OC)c(OC)c2)cc1O (some centres not stated) | – | – | – | Activity (HepG2 [4]): inactive
17 | COc1ccc(CC(CCNC(=O)CNC(=O)[C@H](CCCCNC(=O)CCCC[C@@H]2SC[C@@H]3NC(=O)N[C@@H]32)NC(=O)c2ccc(N=[N+]=[N-])cc2)c2cc(OC)c(OC)c(OC)c2)cc1O (some centres not stated) | – | – | – | Activity (HepG2 [4]): inactive
18 | COc1ccc(CC(CCNC(=O)[C@H](CCCCNC(=O)CCC2(C)N=N2)N=[N+]=[N-])c2cc(OC)c(OC)c(OC)c2)cc1O (some centres not stated) | – | – | – | inhibition (HepG2 [6]): Active
19 | COc1ccc(CC(O)c2cc(OC)c(OC)c(OC)c2)cc1O (configuration not stated) | – | – | – | Activity (HepG2 [7]): Active
20 | COc1ccc(CCc2cc(OC)c(OC)c(OC)c2OCCOC(=O)CCCCCNC(=O)CCCC[C@@H]2SC[C@@H]3NC(=O)N[C@@H]32)cc1O | – | – | – | Activity (HepG2 [8]): inactive
21 | COc1ccc(CC(CCNC(=O)[C@H](CCCCNC(=O)CCCC[C@@H]2SC[C@@H]3NC(=O)N[C@@H]32)NC(=O)CCC2(C)N=N2)c2cc(OC)c(OC)c(OC)c2)cc1O (some centres not stated) | – | – | – | Activity (HepG2 [4]): inactive
22 | CCCCCCCCOC(=O)c1cc(O)c(O)c(O)c1 [OCTYL_GALLATE] | – | – | – | Ki [9]: 700 nM
23 | COc1ccc(CC(CCOC(=O)CCCCCNC(=O)CCCC[C@@H]2SC[C@@H]3NC(=O)N[C@@H]32)c2cc(OC)c(OC)c(OC)c2)cc1O (some centres not stated) | – | – | – | Activity (HepG2 [8]): inactive
24 | N[C@@H](CC(=O)O)C(=O)O [ASPARTIC ACID] | – | – | – | Ki [10]: 700 nM
25 | COc1ccc(CC(CCNC(=O)COCCOCCOCCNC(=O)[C@H](CCCCNC(=O)CCCC[C@@H]2SC[C@@H]3NC(=O)N[C@@H]32)NC(=O)c2ccc(N=[N+]=[N-])cc2)c2cc(OC)c(OC)c(OC)c2)cc1O (some centres not stated) | – | – | – | Activity (HepG2 [4]): inactive
26 | COc1ccc(CC(CCNC(=O)[C@H](CCCCNC(=O)CCC2(C)N=N2)NC(=O)CCCC[C@@H]2SC[C@@H]3NC(=O)N[C@@H]32)c2cc(OC)c(OC)c(OC)c2)cc1O (some centres not stated) | – | – | – | Activity (HepG2 [4]): inactive
27 | Nc1ncnc2c1ncn2[C@@H]1O[C@@H]2CO[P@@](=O)(O)O[C@H]3[C@@H](O)[C@H](n4cnc5c(N)ncnc54)O[C@@H]3CO[P@@](=O)(O)O[C@H]2[C@H]1O | – | – | – | Ki [9]: 700 nM
28 | COc1ccc(CC(CCO)c2cc(OC)c(OC)c(OC)c2)cc1O (configuration not stated) | – | – | – | Activity (HepG2 [4]): inactive; Activity (HepG2 [7]): Active
29 | COc1cc(O[C@@H]2O[C@H](CO)[C@@H](O)[C@H](O)[C@H]2O)cc2ccc3cccc(O)c3c12 | 65 nM | 2660 nM | 29900 nM | IC50 [5]: 97 nM
30 | COc1ccc(CC(CCNC(=O)[C@H](CCCCNC(=O)CCCC[C@@H]2SC[C@@H]3NC(=O)N[C@@H]32)NC(=O)c2ccc(N=[N+]=[N-])cc2)c2cc(OC)c(OC)c(OC)c2)cc1O (some centres not stated) | – | – | – | Activity (HepG2 [4]): inactive

Source: ChEMBL document CHEMBL5046245, “Identification of Pyruvate Carboxylase as the Cellular Target of Natural Bibenzyls with Potent Anticancer Activity against Hepatocellular Carcinoma via Metabolic Reprogramming” (J Med Chem, 2022)
